Molecules are shown by their SMILES. Counter-ions that a name gives are not always drawn.

Experiment [1] has as its target T1, MCH1 receptor (Rattus norvegicus, UniProt P97639).
T1 construct: from tissue; host or cells: rat brain membranes
Put plainly: Displacement of [125I]-Tyr-S36057 binding to MCH1 receptors, rat brain membrane preparations. Particulars: in rats, brain membranes, read-out: IC50 (concentration that inhibits 50% of the specific binding). As to the method: (§1) The measurement of the affinity of the compounds of the invention for the MCH receptors was performed by studying the displacement of the binding of a radiolabelled derivative of MCH to the MCH1 receptors. This study was performed on rat and/or mouse brain membrane preparations according to the protocol described below.
(§2) In anticipation of the binding studies, the brains are diluted in HEPES buffer 25 mM (pH: 7.4) containing MgCl2 5 mM, CaCl2 1 mM, homogenized using a Polytron blender for 3 times 20 seconds (speed 25), and are then ultracentrifuged at 22000 rpm and at +4° C. for 30 minutes. The centrifugation pellet is taken up in the same buffer and the membranes are divided into aliquots and stored frozen at −80° C. until the time of use. The membranes are warmed to room temperature and then incubated in the presence of the test compounds, and of […] of an MCH-based radiolabelled molecule, [^125I]-Tyr-S36057 (8-amino-3,6-dioxyoctanoyl MCH 6-17 sold by Perkin-Elmer), in HEPES buffer 25 mM (pH: 7.4) containing MgCl2 5 mM, CaCl2 1 mM, bacitracin 140 mg/L, phenanthroline 1 mM and 0.2% bovine serum albumin. […] The radioactivity retained on the filters is measured using a Gamma scintillation counter. The non-specific binding is determined in the presence of 1 μM of non-radiolabelled S36057. […]
A general note: Loss of bound radioactivity is the signal in a displacement assay; it reports binding, not function.

The target in experiment [2] is T2, MCH1 receptor (Mus musculus, UniProt Q8JZL2).
T2 construct: from tissue; host or cells: mouse brain membranes
The experiment can be described thus: Displacement of [125I]-Tyr-S36057 binding to MCH1 receptors, mouse brain membrane preparations. Particulars: in mice, brain membranes, read-out: IC50 (concentration that inhibits 50% of the specific binding). Here is the method:
as §1, §2

T2 sequence (Q8JZL2 whole entry): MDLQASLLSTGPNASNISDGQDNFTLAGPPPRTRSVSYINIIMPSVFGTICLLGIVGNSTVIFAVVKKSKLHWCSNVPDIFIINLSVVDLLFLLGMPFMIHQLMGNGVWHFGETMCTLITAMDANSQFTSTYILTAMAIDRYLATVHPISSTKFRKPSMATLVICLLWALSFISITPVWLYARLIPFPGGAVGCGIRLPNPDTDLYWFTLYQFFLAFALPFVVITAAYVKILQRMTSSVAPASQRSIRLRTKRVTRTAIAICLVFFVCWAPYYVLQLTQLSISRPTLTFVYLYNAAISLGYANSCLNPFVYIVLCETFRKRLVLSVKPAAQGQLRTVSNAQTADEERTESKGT
T1 sequence (P97639 whole entry): as the sequence (Q8JZL2 whole entry) above, with A5T, F24L, A27P, P29S, R34G, A138T counted along it

Take `COc1ccc2c(C3CCN(Cc4ccccc4)CC3)nnc(NC3CCN(Cc4ccc5c(c4)OCO5)CC3)c2c1` [Example 1, N-[1-(1,3-Benzodioxol-5-ylmethyl)piperidin-4-yl]-4-(1-benzylpiperidin-4-yl)-7-methoxyphthalazin-1-amine Trihydrochloride]: the results for the IC50 at MCH1 receptor [1] and at MCH1 receptor [2] were 0.0005 µM and 0.0002 µM, respectively.

With `COc1ccc(-c2nnc(NC3CCN(Cc4ccc(OCCCN(C)C)cc4)CC3)c3cc(OC)ccc23)cc1` [Example 3, N-(1-[{4-[3-(Dimethylamino)propoxy]benzyl}piperidin-4-yl)-7-methoxy-4-(4-methoxy-phenyl)phthalazin-1-aminetrihydrochloride], the IC50 on MCH1 receptor [1] worked out at 0.052 µM; on MCH1 receptor [2], 0.038 µM.

Source of the values: patent US20090124624A1, “SUBSTITUTED 1-AMINOPHTHALAZINE DERIVATIVES, PREPARATION THEREOF AND THERAPEUTIC APPLICATION THEREOF” (SANOFI-AVENTIS, priority 2005, published 2009).
